Tested on: subjects with major depressive disorder (MDD) who were inadequate responders to citalopram
Experiment: Individual HAMD-17 factor (subscale) scores, exploratory analysis
Format: in vivo, human
Description: In more detail, a multi-center double-blind, randomized, placebo-controlled, parallel group, flexible dose titration study of TC-5214 as adjunctive therapy in subjects with major depressive disorder (MDD) who were inadequate responders to citalopram was conducted in centers in the US and India. The study consisted of a screening period, baseline/washout period, open-label phase, double-blind phase, and a follow-up visit. Subject participation in the study could continue for up to 16 weeks of treatment. Following a washout period of up to 28 days for other antidepressants, subjects with MDD and a MADRS total score >/=28 and a Clinical Global Impression-Severity (CGI-S) score >/=4 were enrolled on Day 1 into an open-label citalopram-only phase of the study. This phase lasted 8 weeks, with citalopram (CIT) dose increased from a once-daily dose of 20 mg (Day 1 through Week 4) to 40 mg (Week 4 through Week 8). A total of 579 subjects entered the open-label citalopram phase. At Week 8, subjects who tolerated 40 mg CIT, but whose MADRS score was reduced <50% from baseline and no lower than 17, and CGI-S≧4, were considered inadequate responders. These subjects (n=270) were randomized in a double-blind fashion to receive either placebo or TC-5214-23 as add-on therapy to continued CIT. The double-blind phase of the study also lasted 8 weeks (Week 8 to Week 16). Study drug, TC-5214-23 or placebo, was started at 2 mg daily (1 mg twice per day [BID] dosing), added on to continuing CIT (40 mg PO qd). After 2 weeks of treatment, the dose of TC-5214 could be increased to 4 mg (2 mg BID) or continued unchanged, with up-titration based upon good tolerability and inadequate therapeutic response. After a further 2 weeks, the dose of TC-5214 could be increased again to 8 mg (4 mg BID) if judged appropriate by the investigator, based upon good tolerability and inadequate therapeutic response. At any time during the double-blind phase of the study, placebo or TC-5214-23 could be reduced to the previous dose level following the emergence of unacceptable adverse events (AEs). […] At this follow-up, any signs or symptoms of relapse were evaluated. If a subject was prematurely discontinued from the study between Week 8 and Week 16 for any reason, the investigator was to make every effort to perform all evaluations as per protocol, assuming the subject had reached the end of the double-blind add-on treatment phase. These evaluations were to be made as soon as possible and within 2 weeks of discontinuation. […] There was no meaningful difference in results as a function of age, gender, site, or smoking status. An exploratory analysis assessed the differences in the treatment groups from Week 8 (double-blind baseline) to Week 16 for each individual HAMD-17 factor score.

[1] = ITT population, Week 8 (double-blind baseline) to Week 16

CNC1(C)C2CCC(C2)C1(C)C (stereo in doubt) [TC-5214, (S)—N,2,3,3-tetramethylnorbornan-2-amine]
HAMD-17 item 1 Depression-Mood: Adjusted Mean Change TC-5214—Placebo (SD) [1]: −0.69 (0.86) | HAMD-17 item 1 Depression-Mood: Effect Size [1]: 0.80 | HAMD-17 item 2 Feelings of Guilt: Adjusted Mean Change TC-5214—Placebo (SD) [1]: −0.43 (0.72) | HAMD-17 item 2 Feelings of Guilt: Effect Size [1]: 0.60 | HAMD-17 item 3 Suicide: Adjusted Mean Change TC-5214—Placebo (SD) [1]: −0.07 (0.40) | HAMD-17 item 3 Suicide: Effect Size [1]: 0.18 | HAMD-17 item 4 Early Insomnia: Adjusted Mean Change TC-5214—Placebo (SD) [1]: −0.41 (0.64) | HAMD-17 item 4 Early Insomnia: Effect Size [1]: 0.64 | HAMD-17 item 5 Middle Insomnia: Adjusted Mean Change TC-5214—Placebo (SD) [1]: −0.42 (0.64) | HAMD-17 item 5 Middle Insomnia: Effect Size [1]: 0.66 | HAMD-17 item 6 Late Insomnia: Adjusted Mean Change TC-5214—Placebo (SD) [1]: −0.35 (0.63) | HAMD-17 item 6 Late Insomnia: Effect Size [1]: 0.56 | HAMD-17 item 7 Work and Activities: Adjusted Mean Change TC-5214—Placebo (SD) [1]: −0.49 (0.86) | HAMD-17 item 7 Work and Activities: Effect Size [1]: 0.57 | HAMD-17 item 8 Retardation: Adjusted Mean Change TC-5214—Placebo (SD) [1]: −0.31 (0.59) | HAMD-17 item 8 Retardation: Effect Size [1]: 0.53 | HAMD-17 item 9 Agitation: Adjusted Mean Change TC-5214—Placebo (SD) [1]: −0.40 (0.68) | HAMD-17 item 9 Agitation: Effect Size [1]: 0.59 | HAMD-17 item 10 Psychic Anxiety: Adjusted Mean Change TC-5214—Placebo (SD) [1]: −0.59 (0.77) | HAMD-17 item 10 Psychic Anxiety: Effect Size [1]: 0.77 | HAMD-17 item 11 Somatic Symptoms: Anxiety: Adjusted Mean Change TC-5214—Placebo (SD) [1]: −0.41 (0.70) | HAMD-17 item 11 Somatic Symptoms: Anxiety: Effect Size [1]: 0.59 | HAMD-17 item 12 Somatic Symptoms: GI: Adjusted Mean Change TC-5214—Placebo (SD) [1]: −0.23 (0.52) | HAMD-17 item 12 Somatic Symptoms: GI: Effect Size [1]: 0.44 | HAMD-17 item 13 Somatic Symptoms: General: Adjusted Mean Change TC-5214—Placebo (SD) [1]: −0.24 (0.66) | HAMD-17 item 13 Somatic Symptoms: General: Effect Size [1]: 0.36 | HAMD-17 item 14 Somatic Symptoms: Genital: Adjusted Mean Change TC-5214—Placebo (SD) [1]: −0.34 (0.62) | HAMD-17 item 14 Somatic Symptoms: Genital: Effect Size [1]: 0.55 | HAMD-17 item 15 Hypochondriasis: Adjusted Mean Change TC-5214—Placebo (SD) [1]: −0.48 (0.74) | HAMD-17 item 15 Hypochondriasis: Effect Size [1]: 0.65 | HAMD-17 item 16 Weight Loss: Adjusted Mean Change TC-5214—Placebo (SD) [1]: −0.20 (0.53) | HAMD-17 item 16 Weight Loss: Effect Size [1]: 0.38 | HAMD-17 item 17 Insight: Adjusted Mean Change TC-5214—Placebo (SD) [1]: 0.03 (0.31) | HAMD-17 item 17 Insight: Effect Size [1]: 0.10 | each HAMD-17 subscale score change from baseline compared with placebo (ITT, with the exception of the Suicide and Insight subscales, result in words): statistically significant decreases (improvements)

— US20120190752A1, “EXO-S-MECAMYLAMINE METHOD, USE, AND COMPOUND FOR TREATMENT” (Targacept Inc., priority 2009, published 2012)
